In patent US20120095445A1, “METHODS AND COMPOSITIONS FOR INCREASING TRICHOGENIC POTENCY OF DERMAL CELLS” (Aderans Research Institute, Inc., priority 2009, published 2012):

Experiments:
human adult dermal cells = test: Aderans Hair Patch Assay (hybrid patch assay) with cultured human adult dermal cells; type: cell-based
Description: Trichogenic activity of populations of dermal cells can be determined by using the Aderans Hair Patch Assay™ (Zheng, Y., J Invest Dermatol, 124: 867-876 (2005)). In this assay dissociated dermal and epidermal cells are implanted into the dermis or the subcutis of an immunoincompetent mouse. Using mouse newborn skin cells, new hair follicles typically form in this assay within 8 to 10 days. The newly formed follicle manifests normal hair shafts, mature sebaceous glands, and a natural hair cycle. Although normal cycling hair follicles are formed in this assay, the assay primarily measures the ability of cells or combinations of cells to form new follicles. Mouse dermal cells are assayed in conjunction with mouse neonatal epidermal cells.
(§1) Trichogenic activity of populations of dermal cells was determined by the Aderans Hair Patch Assay™ (Zheng, Y., J Invest Dermatol, 124: 867-876 (2005)). In this assay dissociated dermal and epidermal cells are implanted into the dermis or the subcutis of an immunoincompetent mouse. Using mouse newborn skin cells, new hair follicles typically form in this assay within 8 to 10 days. The newly formed follicle manifests normal hair shafts, mature sebaceous glands, and a natural hair cycle. Although normal cycling hair follicles are formed in this assay, the assay primarily measures the ability of cells or combinations of cells to form new follicles. In the classical Patch assay mouse neonatal dermal cells were assayed in conjunction with mouse neonatal epidermal cells. In a modification of that assay human adult dermal cells are assayed in the presence of mouse newborn epidermal cells.
In the initial study four different concentrations of one of the Curls, Inc. Shh pathway agonist (agonist A-CUR-0201365) were used, 0, 0.005, 0.05 and 0.125 ug/ml (FIG. 2A). […] The number of hair follicles formed in the hair patch assay is greater when the cells are grown in the presence of the Shh pathway agonist.
To investigate if Shh pathway agonist can increase cell inductivity with short-term treatment (7 days before harvest); 3 patient samples were tested using agonist B. For each sample, the cells were treated with 0, 0.0125, 0.0375, 0.05 and 0.15 ug/ml of Shh pathway agonist B at the passage P1 or P2. P1 and P2 cells were then harvested after approximately 7 days and analyzed in the hybrid patch assay. […] Cells were treated for that 7 day period only, but not treated prior to that.

dermal cells = test: Growth and yield of dermal cells in culture (population doubling time, number of cells); type: cell-based, human
Description: FIG. 3A is a graph showing the population doubling time of dermal cells treated with the indicated amount of a Shh pathway agonist. FIG. 3B is a graph showing number of cells (millions) of dermal cells treated with Shh pathway agonist at confluence.
FIG. 5A is a graph showing the average number of cells (millions) in flasks using dermal cells treated with the indicated amount of Shh pathway agonist after one passage in culture. FIG. 5B is a graph showing the average number of cells (millions) in flasks using dermal cells treated with the indicated amount of Shh pathway agonist after two passages in culture. FIG. 5C is a graph of population doubling time (days) for dermal cells treated with the indicated amount of Shh pathway agonist after one passage in culture. FIG. 5D is a graph of population doubling time (days) for dermal cells treated with the indicated amount of Shh pathway agonist after two passages in culture.

human fetal cells = test: Aderans Hair Patch Assay with human fetal cell cultures; type: cell-based; settings: for effect on hair number: FIG. 9
Description: FIG. 7 is a graph of the number of hair follicles formed from human fetal cell cultures in the Aderans Hair Patch Assay™ versus the indicated cell culture passage P0, P1, P2 or P3 in cells culture with a Shh pathway agonist. Each passage has a pair of columns with the left column corresponding to results obtained without treating the cells with an agonist and a right column showing results with cells treated with an agonist.
FIG. 8 is a graph of number of hair follicles formed from human fetal cell cultures in the Aderans Hair Patch Assay™ in untreated or treated cells at the indicated cell culture passage.
FIG. 9 is a graph of the number of hair follicles formed from human fetal cell cultures in the Aderans Hair Patch Assay™ in the indicated medium.
as §1
We have recently extended our study of the impact of SHH pathway agonist B (CUR-0236715) on hair inducing activity from human adult cells to human fetal cells, as well as mouse cells.
In another experiment, cells were initially cultured in medium without SHH pathway agonist. The SHH pathway agonist CUR-0236715 was only added to the culture at the beginning of a particular passage, and lasted for that passage only (P1 and P4 as shown in FIG. 8). Adding SHH pathway agonist B (CUR-0236715) at these later passages can still increase fetal cell trichogenicity.

[1] = tested on: mouse neonatal dermal cells; test: Patch assay with mouse neonatal dermal cell culture; type: cell-based
Procedure: as §1
In addition to cultured human cells, the SHH pathway agonist B was added to mouse neonatal dermal cell culture.

SMILES | hair follicles in the patch assay (per million cells injected) compared to non-treated cells (human adult dermal cells; cells grown in medium with agonist, 0.005-0.625 ug/ml, FIG. 2) | trichogenicity with passage (P1 through P4) (human adult dermal cells; highest concentration, without agonist trichogenicity diminished) | dose-response relationship of hair follicle number in patch assay (human adult dermal cells; increasing agonist concentration in the medium) | cell growth rate (dermal cells; in the higher concentrations, FIG. 3) | short term results versus continuous treatment (human adult dermal cells; 7 day treatment only) | optimal concentration for hair follicle formation (human adult dermal cells; continuous treatment, at P2, FIG. 4B) | hair follicle number in patch assays (human adult dermal cells; continuous treatment, various agonist concentrations, FIG. 4) | hair follicle numbers compared to the control (human adult dermal cells; short-term treatment (7 days before harvest), 0.0125-0.15 ug/ml, P1 or P2, 3 patient samples, FIGS. 6A and 6B) | optimal concentration (human adult dermal cells; short-term treatment (7 days), P1 and P2 cells) | adverse effect on cell growth or yield (dermal cells; all the concentrations tested, FIG. 5) | increase in hair number (human fetal cells; 37.5 ng/ml at P0, FIG. 7) | effect on hair number (human fetal cells; Amniomax, Chang's media and culture medium of Osada et al.) | effect on hair number (human fetal cells; agonist added to cell culture medium) | number of hair follicles versus cells consistently treated throughout the culture (human fetal cells; agonist only at P1 or P4) | number of hair follicles formed versus no SHH control cells (human fetal cells; agonist only at P1 or P4, for that passage only, FIG. 8) | increase of hair number at later passages (human fetal cells; cells continuously cultured in the presence of agonist, FIG. 7) | size of hair follicles compared to non-treated cells [1] | activity as indicated by the number of hair follicles formed in patch assay ([1]; preliminary data, FIG. 10)
CNC1CCC(N(Cc2cc(-c3ccccc3)ccc2OC)C(=O)c2sc3ccccc3c2Cl)CC1 (stereo not drawn) [agonist A] | produced more hair follicles | remained at a high level | increasing effect (hair follicle number in patch assay) with increasing Shh pathway agonist concentration | decreases |  |  |  |  |  |  |  |  |  |  |  |  |  | 
CNC1CCC(N(Cc2cc(-c3ccc(NS(C)(=O)=O)nc3)ccc2OC)C(=O)c2sc3c(F)ccc(F)c3c2Cl)CC1 (stereo not drawn) [agonist B] |  |  |  |  | comparable to that of continuous treatment | 0.0375 µg/mL | increased hair follicle number | higher hair follicle numbers | 0.0375 µg/mL | did not show any adverse effect | more than 3 fold | not significant | increase of hair number | equivalent | about 5 fold | extended to later passages (P3) | increased significantly | increased activity
